The values below come from publication PMC10300102, “In vivo inhibition of nuclear ACE2 translocation protects against SARS-CoV-2 replication and lung damage through epigenetic imprinting” (Nature Communications, 2023).

Usually share remaining stands for what is left of the initial amount, in per cent.

Structures can show the parent of a compound that is named as a salt. Where two headings read alike, the source gives them in different places.

The nature of this data set: In vitro monkey plasma assay. The data set is classed as in vitro ADME, cynomolgus monkey. Conditions: for remaining at 0.25 h, 2 µM: time 15 min; for remaining at 0.5 h, 2 µM: time 30 min; for remaining at 1 h, 2 µM: time 60 min; for remaining at 2 h, 2 µM: time 120 min. As for the experimental part: Briefly, pooled frozen plasma was thawed at 37 °C prior to experiments. Plasma was centrifuged at 3720 x g for 5 min and any clots were removed. All blanks and working solutions were aliquoted on an Apricot automation workstation (2 μL/well of working solution (100 μM) with 98 μL plasma for NACE2i peptide (CP300638) and control compounds somatostatin acetate and procaine hydrochloride). All reaction plates containing mixtures of NACE2i, somatostatin acetate, and procaine hydrochloride and plasma were incubated at 37 °C in a water bath for 0, 15, 30, 60, 120, 240, and 360 min. Incubation was stopped with 4% H3PO4 and stop solution (200 ng/mL tolbutamide and 200 ng/mL labetalol in MeOH) to precipitate protein. Each plate was sealed and shaken for 20 min and then centrifuged at 3720 x g at 4 °C for 20 min. After centrifugation, the Apricot workstation was used to transfer 150 μL supernatant to each bioanalysis plate, which was then sealed and shaken for 10 min prior to LC-MS/MS analysis as per the manufacturer’s guidelines. LC: Shimadzu LC 30-AD, MS: QTRAP 6500 + , Autosampler: CTC PAL.

[1] abbreviates: male, monkey, pooled plasma, cynomolgus monkey plasma, n=2.
Where [2] appears, read: monkey, plasma (pooled, frozen), cynomolgus monkey plasma, n=2.

`CCN(CC)CCOC(=O)c1ccc(N)cc1` [procaine hydrochloride, reference compound]: the “% Remaining” value (cynomolgus monkey plasma, time 0 min, n=2) was 100%. Also, under setting [1], the share remaining at 0.25 h, 2 µM turned out to be 27.3%; the amount remaining at 0.5 h, 2 µM worked out at 3.07%; the share remaining at 1 h, 2 µM is 0.813%; the share remaining at 2 h, 2 µM came to 0.381%. Moreover, the share remaining at 6 h, 2 µM (male, monkey, pooled plasma, cynomolgus monkey plasma, time 360 min, n=2, read-out: % Remaining) is 0.0209%. Besides, where the note is “male, monkey, pooled plasma, pooled male cynomolgus monkey plasma, 2 µL of 100 µM working solution + 98 µL plasma, 37 °C, 360 min, LC-MS/MS, read-out: % remaining in plasma after 360 min incubation”, the fraction remaining at 6 h, 2 µM was 0%.
Turning to `C[C@H](N)C(=O)NCC(=O)N[C@H]1CSSC[C@@H](C(=O)O)NC(=O)[C@H](CO)NC(=O)[C@H]([C@@H](C)O)NC(=O)[C@H](Cc2ccccc2)NC(=O)[C@H]([C@@H](C)O)NC(=O)[C@H](CCCCN)NC(=O)[C@H](Cc2c[nH]c3ccccc23)NC(=O)[C@H](Cc2ccccc2)NC(=O)[C@H](Cc2ccccc2)NC(=O)[C@H](CC(N)=O)NC(=O)[C@H](CCCCN)NC1=O` [somatostatin acetate, reference compound], under setting [2], the fraction remaining at 0.25 h, 2 µM amounted to 77.1%; the amount remaining at 0.5 h, 2 µM amounted to 61.3%; the amount remaining at 1 h, 2 µM was 50.2%; the fraction remaining at 2 h, 2 µM amounted to 29%. Where the note is “monkey, plasma (pooled, frozen), cynomolgus monkey plasma, time 240 min, n=2”, this compound displayed a share remaining at 4 h, 2 µM of 18.1%. Moreover, the share remaining at 6 h, 2 µM (monkey, plasma (pooled, frozen), cynomolgus monkey plasma, time 360 min, n=2, read-out: % Remaining) is 3.81%. Where the note is “pooled male cynomolgus monkey plasma, 2 µL of 100 µM working solution + 98 µL plasma, 37 °C, 360 min, LC-MS/MS”, the “% remaining in plasma after 360 min incubation” value was found to be 3.8%.
